Experimental data from patent publication US20250145665A1, “MACROCYCLIC PEPTIDES USEFUL AS MODULATORS OF TNF ALPHA” (Bristol-Myers Squibb Company, priority 2023, published 2025).
Positions of bridges follow the written chain, without caps; N, C: chain ends. Non-standard residues stand in square brackets, D forms with d. Residues, ends and D or L forms follow the SMILES beside them. Ala(morpholin-4-yl) = N[C@@H](CN1CCOCC1)C(=O)O; Phe(4-CH2NH2) = NCc1ccc(C[C@H](N)C(=O)O)cc1; Bip = N[C@@H](Cc1ccc(-c2ccccc2)cc1)C(=O)O; Phe(3-OMe) = COc1cccc(C[C@H](N)C(=O)O)c1; Phe(4-NH2) = Nc1ccc(C[C@H](N)C(=O)O)cc1; Phe(4-F) = N[C@@H](Cc1ccc(F)cc1)C(=O)O; Phe(2-F) = N[C@@H](Cc1ccccc1F)C(=O)O; Val(3-OH) = CC(C)(O)[C@H](N)C(=O)O; 3Pal = N[C@@H](Cc1cccnc1)C(=O)O; Sar = CNCC(=O)O

Target: TNFα (Homo sapiens, UniProt P01375)
Sequence (P01375 77-233 limits assumed): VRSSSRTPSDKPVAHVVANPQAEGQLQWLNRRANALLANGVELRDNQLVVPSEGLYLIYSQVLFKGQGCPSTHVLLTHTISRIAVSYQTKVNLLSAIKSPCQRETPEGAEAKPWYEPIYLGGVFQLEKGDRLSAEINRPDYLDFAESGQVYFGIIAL
Assay: TNF-Induced HEK-Blue Assay
Assay type: cell-based
Conditions: HEK-Blue-CD40L cells, NF-kB-driven secreted alkaline phosphatase reporter; TNFα 0.5 ng/ml; 18 h; read-out: TNF induced HEK-Blue assay IC50 value

Compound | IC50 [nM]
CC(C)C[C@@H]1NC(=O)[C@H](CCCNC(=N)N)NC(=O)[C@H](C(C)C)NC(=O)[C@@H]2CCCN2C(=O)[C@H](Cc2ccc(CN)cc2)NC(=O)[C@H](CCCNC(=N)N)NC(=O)[C@H](CC(=O)O)NC(=O)[C@@H]2CCCN2C(=O)CN(C)C(=O)[C@H](Cc2ccc(-c3ccccc3)cc2)NC(=O)[C@H](Cc2ccc(-c3ccccc3)cc2)NC(=O)[C@H](CN2CCOCC2)NC(=O)CSC[C@@H](C(=O)NCC(N)=O)NC1=O [Example 51] ({CH2CO}-[Ala(morpholin-4-yl)][Bip][Bip][Sar]PDR[Phe(4-CH2NH2)]PVRLCG-NH2; thioether N-13) | 200 to 2000
CC(C)C[C@@H]1NC(=O)[C@H](CCCNC(=N)N)NC(=O)[C@H](C(C)C)NC(=O)[C@@H]2CCCN2C(=O)[C@H](Cc2ccc(F)cc2)NC(=O)[C@H](CCCNC(=N)N)NC(=O)[C@H](CC(=O)O)NC(=O)[C@@H]2CCCN2C(=O)CN(C)C(=O)[C@H](Cc2ccc(-c3ccccc3)cc2)NC(=O)[C@H](Cc2ccc(-c3ccccc3)cc2)NC(=O)[C@H](CN2CCOCC2)NC(=O)CSC[C@@H](C(=O)NCC(N)=O)NC1=O [Example 52] ({CH2CO}-[Ala(morpholin-4-yl)][Bip][Bip][Sar]PDR[Phe(4-F)]PVRLCG-NH2; thioether N-13) | 200 to 2000
CC(C)C[C@@H]1NC(=O)[C@H](CCCNC(=N)N)NC(=O)[C@H](C(C)C)NC(=O)[C@@H]2CCCN2C(=O)[C@H](Cc2ccccc2F)NC(=O)[C@H](CCCNC(=N)N)NC(=O)[C@H](CC(=O)O)NC(=O)[C@@H]2CCCN2C(=O)CN(C)C(=O)[C@H](Cc2ccc(-c3ccccc3)cc2)NC(=O)[C@H](Cc2ccc(-c3ccccc3)cc2)NC(=O)[C@H](CN2CCOCC2)NC(=O)CSC[C@@H](C(=O)NCC(N)=O)NC1=O [Example 53] ({CH2CO}-[Ala(morpholin-4-yl)][Bip][Bip][Sar]PDR[Phe(2-F)]PVRLCG-NH2; thioether N-13) | 200 to 2000
CC(C)C[C@@H]1NC(=O)[C@H](CCCNC(=N)N)NC(=O)[C@H](C(C)C)NC(=O)[C@@H]2CCCN2C(=O)[C@H](Cc2cccnc2)NC(=O)[C@H](CCCNC(=N)N)NC(=O)[C@H](CC(=O)O)NC(=O)[C@@H]2CCCN2C(=O)CN(C)C(=O)[C@H](Cc2ccc(-c3ccccc3)cc2)NC(=O)[C@H](Cc2ccc(-c3ccccc3)cc2)NC(=O)[C@H](CN2CCOCC2)NC(=O)CSC[C@@H](C(=O)NCC(N)=O)NC1=O [Example 54] ({CH2CO}-[Ala(morpholin-4-yl)][Bip][Bip][Sar]PDR[3Pal]PVRLCG-NH2; thioether N-13) | 50 to 200
CC(C)C[C@@H]1NC(=O)[C@H](CCCNC(=N)N)NC(=O)[C@H](C(C)C)NC(=O)[C@@H]2CCCN2C(=O)[C@H](Cc2ccc(N)cc2)NC(=O)[C@H](CCCNC(=N)N)NC(=O)[C@H](CC(=O)O)NC(=O)[C@@H]2CCCN2C(=O)CN(C)C(=O)[C@H](Cc2ccc(-c3ccccc3)cc2)NC(=O)[C@H](Cc2ccc(-c3ccccc3)cc2)NC(=O)[C@H](CN2CCOCC2)NC(=O)CSC[C@@H](C(=O)NCC(N)=O)NC1=O [Example 55] ({CH2CO}-[Ala(morpholin-4-yl)][Bip][Bip][Sar]PDR[Phe(4-NH2)]PVRLCG-NH2; thioether N-13) | 50 to 200
CC(C)C[C@@H]1NC(=O)[C@H](CCCNC(=N)N)NC(=O)[C@H](C(C)C)NC(=O)[C@@H]2CCCN2C(=O)[C@H](Cc2ccc(O)cc2)NC(=O)[C@H](CCCNC(=N)N)NC(=O)[C@H](CC(=O)O)NC(=O)[C@@H]2CCCN2C(=O)CN(C)C(=O)[C@H](Cc2ccc(-c3ccccc3)cc2)NC(=O)[C@H](Cc2ccc(-c3ccccc3)cc2)NC(=O)[C@H](CN2CCOCC2)NC(=O)CSC[C@@H](C(=O)NCC(N)=O)NC1=O [Example 56] ({CH2CO}-[Ala(morpholin-4-yl)][Bip][Bip][Sar]PDRYPVRLCG-NH2; thioether N-13) | 50 to 200
CC(C)C[C@@H]1NC(=O)[C@H](CCCNC(=N)N)NC(=O)[C@H](C(C)C)NC(=O)[C@@H]2CCCN2C(=O)[C@H](Cc2ccc(CN)cc2)NC(=O)[C@H](CCCNC(=N)N)NC(=O)[C@H](CC(=O)O)NC(=O)[C@@H]2CCCN2C(=O)CN(C)C(=O)[C@H](Cc2ccc(-c3ccccc3)cc2)NC(=O)[C@H](Cc2ccc(-c3ccccc3)cc2)NC(=O)[C@H](C(C)(C)O)NC(=O)CSC[C@@H](C(=O)NCC(N)=O)NC1=O [Example 57] ({CH2CO}-[Val(3-OH)][Bip][Bip][Sar]PDR[Phe(4-CH2NH2)]PVRLCG-NH2; thioether N-13) | 50 to 200
CC(C)C[C@@H]1NC(=O)[C@H](CCCNC(=N)N)NC(=O)[C@H](C(C)C)NC(=O)[C@@H]2CCCN2C(=O)[C@H](Cc2ccc(F)cc2)NC(=O)[C@H](CCCNC(=N)N)NC(=O)[C@H](CC(=O)O)NC(=O)[C@@H]2CCCN2C(=O)CN(C)C(=O)[C@H](Cc2ccc(-c3ccccc3)cc2)NC(=O)[C@H](Cc2ccc(-c3ccccc3)cc2)NC(=O)[C@H](C(C)(C)O)NC(=O)CSC[C@@H](C(=O)NCC(N)=O)NC1=O [Example 58] ({CH2CO}-[Val(3-OH)][Bip][Bip][Sar]PDR[Phe(4-F)]PVRLCG-NH2; thioether N-13) | 50 to 200
CC(C)C[C@@H]1NC(=O)[C@H](CCCNC(=N)N)NC(=O)[C@H](C(C)C)NC(=O)[C@@H]2CCCN2C(=O)[C@H](Cc2ccccc2F)NC(=O)[C@H](CCCNC(=N)N)NC(=O)[C@H](CC(=O)O)NC(=O)[C@@H]2CCCN2C(=O)CN(C)C(=O)[C@H](Cc2ccc(-c3ccccc3)cc2)NC(=O)[C@H](Cc2ccc(-c3ccccc3)cc2)NC(=O)[C@H](C(C)(C)O)NC(=O)CSC[C@@H](C(=O)NCC(N)=O)NC1=O [Example 59] ({CH2CO}-[Val(3-OH)][Bip][Bip][Sar]PDR[Phe(2-F)]PVRLCG-NH2; thioether N-13) | 200 to 2000
CC(C)C[C@@H]1NC(=O)[C@H](CCCNC(=N)N)NC(=O)[C@H](C(C)C)NC(=O)[C@@H]2CCCN2C(=O)[C@H](Cc2cccnc2)NC(=O)[C@H](CCCNC(=N)N)NC(=O)[C@H](CC(=O)O)NC(=O)[C@@H]2CCCN2C(=O)CN(C)C(=O)[C@H](Cc2ccc(-c3ccccc3)cc2)NC(=O)[C@H](Cc2ccc(-c3ccccc3)cc2)NC(=O)[C@H](C(C)(C)O)NC(=O)CSC[C@@H](C(=O)NCC(N)=O)NC1=O [Example 60] ({CH2CO}-[Val(3-OH)][Bip][Bip][Sar]PDR[3Pal]PVRLCG-NH2; thioether N-13) | 200 to 2000
CC(C)C[C@@H]1NC(=O)[C@H](CCCNC(=N)N)NC(=O)[C@H](C(C)C)NC(=O)[C@@H]2CCCN2C(=O)[C@H](Cc2ccc(N)cc2)NC(=O)[C@H](CCCNC(=N)N)NC(=O)[C@H](CC(=O)O)NC(=O)[C@@H]2CCCN2C(=O)CN(C)C(=O)[C@H](Cc2ccc(-c3ccccc3)cc2)NC(=O)[C@H](Cc2ccc(-c3ccccc3)cc2)NC(=O)[C@H](C(C)(C)O)NC(=O)CSC[C@@H](C(=O)NCC(N)=O)NC1=O [Example 61] ({CH2CO}-[Val(3-OH)][Bip][Bip][Sar]PDR[Phe(4-NH2)]PVRLCG-NH2; thioether N-13) | 200 to 2000
CC(C)C[C@@H]1NC(=O)[C@H](Cc2ccc(O)cc2)NC(=O)[C@H](C(C)C)NC(=O)[C@@H]2CCCN2C(=O)[C@H](C(C)C)NC(=O)[C@@H](CCCNC(=N)N)NC(=O)[C@H](CC(=O)O)NC(=O)[C@H](Cc2ccc(O)cc2)NC(=O)CN(C)C(=O)[C@H](Cc2ccc(-c3ccccc3)cc2)NC(=O)[C@H](Cc2ccc(-c3ccccc3)cc2)NC(=O)[C@H](Cc2ccccc2)NC(=O)CSC[C@@H](C(=O)NCC(N)=O)NC1=O [Example 62] ({CH2CO}-F[Bip][Bip][Sar]YD[dR]VPVYLCG-NH2; thioether N-13) | 50 to 200
COc1cccc(C[C@@H]2NC(=O)[C@H](C(C)C)NC(=O)[C@@H]3CCCN3C(=O)[C@H](C(C)C)NC(=O)[C@H](CCCNC(=N)N)NC(=O)[C@H](CC(=O)O)NC(=O)[C@@H]3CCCN3C(=O)CN(C)C(=O)[C@H](Cc3ccc(-c4ccccc4)cc3)NC(=O)[C@H](Cc3ccc(-c4ccccc4)cc3)NC(=O)[C@H](Cc3ccccc3)NC(=O)CSC[C@@H](C(=O)NCC(N)=O)NC(=O)[C@H](CC(C)C)NC2=O)c1 [Example 63] ({CH2CO}-F[Bip][Bip][Sar]PDRVPV[Phe(3-OMe)]LCG-NH2; thioether N-13) | 200 to 2000
CC(C)C[C@@H]1NC(=O)[C@H](Cc2ccc(O)cc2)NC(=O)[C@H](C(C)C)NC(=O)[C@@H]2CCCN2C(=O)[C@H](C(C)C)NC(=O)[C@H](CCCNC(=N)N)NC(=O)[C@H](CC(=O)O)NC(=O)[C@@H]2CCCN2C(=O)CN(C)C(=O)[C@H](Cc2ccc(-c3ccccc3)cc2)NC(=O)[C@H](Cc2ccc(-c3ccccc3)cc2)NC(=O)[C@H](C(C)(C)O)NC(=O)CSC[C@@H](C(=O)NCC(N)=O)NC1=O [Example 64] ({CH2CO}-[Val(3-OH)][Bip][Bip][Sar]PDRVPVYLCG-NH2; thioether N-13) | 200 to 2000
CC(C)C[C@@H]1NC(=O)[C@H](CCCNC(=N)N)NC(=O)[C@H](C(C)C)NC(=O)[C@@H]2CCCN2C(=O)[C@H](C(C)C)NC(=O)[C@H](CCCNC(=N)N)NC(=O)[C@H](CC(=O)O)NC(=O)[C@H](Cc2ccc(O)cc2)NC(=O)CN(C)C(=O)[C@H](Cc2ccc(-c3ccccc3)cc2)NC(=O)[C@H](Cc2ccc(-c3ccccc3)cc2)NC(=O)[C@H](C(C)(C)O)NC(=O)CSC[C@@H](C(=O)NCC(N)=O)NC1=O [Example 65] ({CH2CO}-[Val(3-OH)][Bip][Bip][Sar]YDRVPVRLCG-NH2; thioether N-13) | 50 to 200
CC(C)C[C@@H]1NC(=O)[C@H](CCCNC(=N)N)NC(=O)[C@H](C(C)C)NC(=O)[C@@H]2CCCN2C(=O)[C@H](CC(N)=O)NC(=O)[C@H](CCCNC(=N)N)NC(=O)[C@H](CC(=O)O)NC(=O)[C@@H]2CCCN2C(=O)CN(C)C(=O)[C@H](Cc2ccc(-c3ccccc3)cc2)NC(=O)[C@H](Cc2ccc(-c3ccccc3)cc2)NC(=O)[C@H](CN2CCOCC2)NC(=O)CSC[C@@H](C(=O)NCC(N)=O)NC1=O [Example 67] ({CH2CO}-[Ala(morpholin-4-yl)][Bip][Bip][Sar]PDRNPVRLCG-NH2; thioether N-13) | 200 to 2000
CC(C)C[C@@H]1NC(=O)[C@H](Cc2ccc(O)cc2)NC(=O)[C@H](C(C)C)NC(=O)[C@@H]2CCCN2C(=O)[C@H](C(C)C)NC(=O)[C@@H](CCCNC(=N)N)NC(=O)[C@H](CC(=O)O)NC(=O)[C@H](Cc2ccc(O)cc2)NC(=O)CN(C)C(=O)[C@H](Cc2ccc(-c3ccccc3)cc2)NC(=O)[C@H](Cc2ccc(-c3ccccc3)cc2)NC(=O)[C@H](CN2CCOCC2)NC(=O)CSC[C@@H](C(=O)NCC(N)=O)NC1=O [Example 68] ({CH2CO}-[Ala(morpholin-4-yl)][Bip][Bip][Sar]YD[dR]VPVYLCG-NH2; thioether N-13) | < 50
